Data from US20230219965A1 (KSQ Therapeutics, Inc., priority 2020, published 2023).
Like-named read-outs stand apart in the source and are kept apart here.

How the values were obtained:
[1] = target: USP1/UAF1 enzyme (Homo sapiens, UniProt O94782); test: USP1/UAF1 deubiquitination assay (ubiquitin-rhodamine 110 substrate); assay type: biochemical; settings: read-out: USP1 IC50 (Ub-Rho)
Method in brief: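 0.05 nM USP1/UAF1 was preincubated 10 min with compounds (dose response from 10 μM) in 50 mM Tris-HCl pH 7.8, 0.5 mM EDTA, 0.01% BSA, 1 mM DTT, 0.01% Tween-20. 150 nM ubiquitin-rhodamine 110 started the reaction, read kinetically 30 min at Ex480/Em540; IC50 by four-parameter fit versus no-enzyme and DMSO controls.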

[2] = system: Ub-PCNA levels in the nucleus of ES2 cells (USP1 activity); test: ES2 Ub-PCNA immunofluorescence (IF) assay; assay type: cell-based; settings: Homo sapiens, ES-2; ES2 cells, 3 hours, Ub-PCNA immunofluorescence; read-out: USP1 IC50 (Ub-PCNA)
Method: USP1 is a deubiquitinating enzyme that removes ubiquitin from mono-ubiquitinated Proliferating Cell Nuclear Antigen (Ub-PCNA). The levels of Ub-PCNA in the nucleus of cells can be used to assess the activity of USP1. An immunofluorescence assay can be established to monitor Ub-PCNA levels in the ovarian cancer cell line, ES2.
An assay can be performed by first plating 5000 ES2 cells per well in black 96 well plates (Corning #3904) and then incubating overnight at 37° C. and 5% CO2. Compounds, resuspended in DMSO, can be added to the cells, to a final DMSO concentration of 0.3%. Plates can be incubated at 37° C. and 5% CO2 for 3 hours.
Cells can be then fixed and stained by first removing the media from each plate and fixing the cells with −20° C. methanol for 5 minutes at room temperature. Fixation plates can be washed with Tris buffered saline with tween (Boston Bioproducts #IBB-855) 5 times for 5 minutes each. Plates can be blocked for 1 hour with 50 μl of Odyssey blocking buffer (Licor #327-50000) at room temperature with rocking. Block can be removed from all wells and 50 μl of primary antibody was added to each well. Ub-PCNA ab (Cell Signaling Technology #13439) can be diluted at 1:400 in Odyssey blocking buffer. Plates can be sealed and incubated overnight at 4° C. Primary antibodies can be removed from the plates and plates can be washed with Tris buffered saline with tween 5 times for 5 minutes. Plates can be stained for 1 hour at room temperature with rocking with 50 μl of secondary antibodies diluted 1:10,000 in Odyssey blocking buffer at room temperature (anti-rabbit Alexa 488). Antibodies can be removed from the plates and plates can be washed with Tris buffered saline with tween 3 times for 5 minutes. Plates can be washed once with DAPI (Chemometec #910-3012) stain diluted 1:5000 (Stock solution of 500 μg/ml) in tris buffered saline with tween for 5 minutes. DAPI stain can be removed and plates can be washed one additional time for 5 minutes with tris buffered saline with tween. Wash can be removed from the plate and 100 μl tris buffered saline with tween can be added back to all wells, Plates can be sealed with Foil seals or black plate seals and plates can be stored at 4° C. until they can be imaged.
Imaging of the plates can be performed by first locating the nuclei using the DAPI stain. A mask can be created by drawing a circle slightly smaller than each nucleus. Ub-PCNA intensities can be measured for each individual nucleus counted. A histogram of all Ub-PCNA nuclear intensities measured in untreated wells can be generated and a 95% cutoff can be established. This 95% cutoff can be used to determine the number of Positive cells that have Ub-PCNA values higher than the 95% cutoff. The number of positive cells can be expressed as a percentage by dividing by the total number of cells in the well. This percent positive value can be used to graph all data and to determine AC50 values.
USP1 is a deubiquitinating enzyme that removes ubiquitin from mono-ubiquitinated
Proliferating Cell Nuclear Antigen (Ub-PCNA). The levels of Ub-PCNA in the nucleus of cells was used to assess the activity of USP1. An immunofluorescence assay was established to monitor Ub-PCNA levels in the ovarian cancer cell line, ES2.
This assay was performed by first plating 5000 ES2 cells per well in black 96 well plates (Corning #3904) and then incubated overnight at 37° C. and 5% CO2. Compounds, resuspended in DMSO, were added to the cells, to a final DMSO concentration of 0.3%. Plates were incubated at 37° C. and 5% CO2 for 3 hours.
Cells were then fixed and stained by first removing the media from each plate and fixing the cells with −20° C. methanol for 5 minutes at room temperature. Following fixation plates were washed with Tris buffered saline with tween (Boston Bioproducts ABB-855) 5 times for 5 minutes each. Plates were blocked for 1 hour with 50μ.1 of Odyssey blocking buffer (Licor #327-50000) at room temperature with rocking. […]

[3] = ADME solubility determination in PBS at pH 2.0 and pH 7.4; assay type: physicochemical; settings: phosphate buffered saline, 25 °C, thermodynamic from solid
Method in brief: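 Dried 10 mM DMSO stock residues taken up in PBS pH 7.4 or pH 2.0, shaken 24 h at 25° C. After centrifugation, supernatant quantified by LC-MS/MS against a standard of known concentration, with a dilution factor applied.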

[4] = Liver microsomal metabolic stability, rat liver microsomes (RLM); settings: rat, liver microsomes, t1/2 (min) in RLM, 1 μM compound, 1 mg/mL microsomes, NADPH
[5] = Liver microsomal metabolic stability, human liver microsomes (HLM); settings: human, liver microsomes
Method: Samples were prepared by adding 222.5 μL of a master solution (100 mM phosphate buffer and 1 mg/mL liver microsomes (HLM or RLM)) and 25 μL of a 10 mM NADPH solution to incubation plates, which were then warmed for 10 min. Each compound was separately dissolved in DMSO to prepare 10 mM stock solutions, which were then diluted to 100 μM with acetonitrile. A reaction was started by adding 2.5 μL of the 100 μM solution of each compound to separate incubation plates such that the final concentration of for each compound in each plate was 1 μM.
25 μL aliquots of each sample were taken at 0.5, 5, 10, 15, 20 and 30 minutes, and the reaction was stopped by adding 5 volumes of cold acetonitrile with IS (100 nM alprazolam, 200 nM caffeine and 100 nM tolbutamide). The samples were then centrifuged at 3,220 G for 30 minutes, and 100 μL of the supernatant fluid was mixed with 100 μL of ultra-pure H2O.
The samples were then analyzed by LC-MS/MS. Peak areas were determined from extracted ion chromatograms. Slope values (k) were determined by linear regression of the natural logarithm of the remaining percentage of the compound vs. incubation time curve. The in vitro half-life (in vitro t1/2) was determined from the slope value using the following equation:

[6] = pH 2, aqueous buffer, PBS pH 2.0, 25° C., read-out: Solubility at pH 2.0
[7] = pH 7.4, aqueous buffer, PBS pH 7.4, 25° C., read-out: Solubility at pH 7.4

Sequence of USP1/UAF1 enzyme (O94782 whole entry): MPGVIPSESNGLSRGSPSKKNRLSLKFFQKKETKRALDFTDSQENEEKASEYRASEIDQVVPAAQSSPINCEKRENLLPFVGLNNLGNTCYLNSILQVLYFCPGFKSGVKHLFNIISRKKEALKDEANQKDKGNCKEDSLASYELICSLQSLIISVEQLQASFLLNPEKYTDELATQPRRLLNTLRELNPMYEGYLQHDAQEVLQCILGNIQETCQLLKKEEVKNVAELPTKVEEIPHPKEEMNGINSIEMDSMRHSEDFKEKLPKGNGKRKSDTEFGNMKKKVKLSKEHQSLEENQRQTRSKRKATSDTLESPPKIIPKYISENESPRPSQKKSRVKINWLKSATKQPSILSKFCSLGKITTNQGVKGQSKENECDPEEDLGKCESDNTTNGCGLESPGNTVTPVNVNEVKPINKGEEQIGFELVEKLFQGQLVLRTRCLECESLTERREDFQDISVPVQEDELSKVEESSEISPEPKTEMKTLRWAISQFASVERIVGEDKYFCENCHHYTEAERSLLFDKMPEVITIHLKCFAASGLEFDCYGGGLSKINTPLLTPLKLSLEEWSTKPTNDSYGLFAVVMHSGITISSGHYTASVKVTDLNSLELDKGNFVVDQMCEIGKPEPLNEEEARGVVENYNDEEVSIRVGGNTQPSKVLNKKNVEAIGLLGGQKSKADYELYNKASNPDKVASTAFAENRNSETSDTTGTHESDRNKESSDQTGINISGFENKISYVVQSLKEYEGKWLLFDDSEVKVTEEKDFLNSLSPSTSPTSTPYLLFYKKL
Sequence of USP1/UAF1 enzyme (Q8TAF3 whole entry partner): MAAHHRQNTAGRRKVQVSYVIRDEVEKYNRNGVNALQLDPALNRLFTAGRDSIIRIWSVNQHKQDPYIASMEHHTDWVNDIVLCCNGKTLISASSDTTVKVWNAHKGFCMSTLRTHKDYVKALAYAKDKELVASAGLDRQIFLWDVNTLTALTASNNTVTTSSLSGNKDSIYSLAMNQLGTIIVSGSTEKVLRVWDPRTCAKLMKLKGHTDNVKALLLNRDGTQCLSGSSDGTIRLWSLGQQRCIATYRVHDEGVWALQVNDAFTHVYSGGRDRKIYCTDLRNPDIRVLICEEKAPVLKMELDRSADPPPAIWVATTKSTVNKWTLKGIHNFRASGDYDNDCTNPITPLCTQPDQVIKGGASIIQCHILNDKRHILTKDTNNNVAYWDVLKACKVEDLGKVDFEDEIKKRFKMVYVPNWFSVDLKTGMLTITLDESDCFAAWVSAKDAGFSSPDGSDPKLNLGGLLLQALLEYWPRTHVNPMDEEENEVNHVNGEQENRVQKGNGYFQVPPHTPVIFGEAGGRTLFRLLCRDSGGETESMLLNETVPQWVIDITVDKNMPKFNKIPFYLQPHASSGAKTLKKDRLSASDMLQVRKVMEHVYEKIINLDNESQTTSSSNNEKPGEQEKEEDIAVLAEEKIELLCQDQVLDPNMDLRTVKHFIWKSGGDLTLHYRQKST

| IC50 [1] [nM] | IC50 [2] [nM] | solubility at 24 h [3, 6] [µM] | solubility at 24 h [3, 7] [µM] | half-life at 1 μM [4] [min] | half-life at 1 μM [5] [min] | SMILES |
| --- | --- | --- | --- | --- | --- | --- |
| < 100 | < 100 | < 10 | < 10 | > 25 | > 25 | COc1ncnc(C2CC2)c1-c1cc2n(n1)CCC(=O)N2Cc1ccc(-c2nc(C(F)(F)F)cn2C(C)C)c(F)c1 [Example 18, 2-(4-cyclopropyl-6-methoxypyrimidin-5-yl)-4-(3-fluoro-4-(1-isopropyl-4-(trifluoromethyl)-1H-imidazol-2-yl)benzyl)-6,7-dihydropyrazolo[1,5-a]pyrimidin-5(4H)-one] |
| < 100 | < 100 | < 10 | < 10 | > 25 | > 25 | CC(C)n1cc(C(F)(F)F)nc1-c1ccc(CN2C(=O)CCn3nc(-c4c(Cl)cnn4C(C)C)cc32)cc1F [Example 20, 2-(4-chloro-1-isopropyl-1H-pyrazol-5-yl)-4-(3-fluoro-4-(1-isopropyl-4-(trifluoromethyl)-1H-imidazol-2-yl)benzyl)-6,7-dihydropyrazolo[1,5-a]pyrimidin-5(4H)-one] |
| < 100 | < 100 | ≥ 10 | < 10 | < 25 | < 25 | COc1ncnc(C2CCC2)c1-c1cc2n(n1)CCC(=O)N2Cc1ccc(-c2nc(C(F)(F)F)cn2C)c(F)c1 [Example 22] |
| 100 to 500 | > 500 | ≥ 10 | ≥ 10 | < 25 | < 25 | COc1ncnc(C)c1-c1cc2n(n1)CCCN2Cc1ccc(-c2nc(C(F)(F)F)cn2C)cc1 [Example 25] |
| < 100 | < 100 | ≥ 10 | < 10 | < 25 | < 25 | COc1ncnc(C2CC2)c1-c1cc2n(n1)CCCN2Cc1ccc(-n2nc(C(F)(F)F)cc2C)cc1 [Example 27] |
| < 100 | < 100 | ≥ 10 | < 10 | < 25 | < 25 | CCn1cc(C(F)(F)F)nc1-c1ccc(CN2CC3(CC3)Cn3nc(-c4c(OC)ncnc4C4CC4)cc32)cc1F [Example 30] |
| < 100 | < 100 | < 10 | < 10 | > 25 | > 25 | COc1ncnc(C2CC2)c1-c1nn2c(c1Cl)N(Cc1ccc(-c3nc(C(F)(F)F)cn3C)cc1)C(=O)CC2 [Example 33, 3-chloro-2-(4-cyclopropyl-6-methoxypyrimidin-5-yl)-4-(4-(1-methyl-4-(trifluoromethyl)-1H-imidazol-2-yl)benzyl)-6,7-dihydropyrazolo[1,5-α]pyrimidin-5(4H)-one] |
| < 100 | < 100 | < 10 | < 10 | < 25 | < 25 | Cc1cnn(C(C)C)c1-c1nc2n(n1)CCC(=O)N2Cc1ccc(-c2nc(C(F)(F)F)cn2C)cc1 [Example 37, 2-(1-isopropyl-4-methyl-1H-pyrazol-5-yl)-4-(4-(1-methyl-4-(trifluoromethyl)-1H-imidazol-2-yl)benzyl)-6,7-dihydro-[1,2,4]triazolo[1,5-α]pyrimidin-5(4H)-one] |
| < 100 | < 100 | < 10 | < 10 | < 25 | < 25 | Cc1cnn(C(C)C)c1-c1nc2n(n1)CCC(=O)N2Cc1ccc(-c2nc(C(F)(F)F)cn2C(C)C)cc1 [Example 38] |
| < 100 | < 100 | < 10 | < 10 | > 25 | > 25 | CC(C)n1ncc(Cl)c1-c1nc2n(n1)CCC(=O)N2Cc1ccc(-c2nc(C(F)(F)F)cn2C)cc1 [Example 39] |
| < 100 | 100 to 500 | < 10 | < 10 | > 25 | > 25 | CC(C)n1cc(C(F)(F)F)nc1-c1ccc(CN2C(=O)CCn3nc(-c4c(Cl)cnn4C(C)C)nc32)cc1F [Example 40] |
| < 100 | < 100 | < 10 | < 10 | > 25 | > 25 | CC(C)n1cc(C(F)(F)F)nc1-c1ccc(CN2C(=O)CCn3nc(-c4c(Cl)cnn4C(C)C)nc32)cc1 [Example 41] |
| < 100 | < 100 | < 10 | < 10 | > 25 | > 25 | CCn1cc(C(F)(F)F)nc1-c1ccc(CN2C(=O)CCn3nc(-c4c(Cl)cnn4C(C)C)nc32)cc1F [Example 42] |
| < 100 | 100 to 500 | ≥ 10 | < 10 | > 25 | > 25 | COc1ncnc(C2CC2)c1-c1nc2n(n1)CCC(=O)N2Cc1ccc(-c2nc(C(F)(F)F)cn2C)cc1 [Example 43] |
| < 100 | < 100 | < 10 | < 10 | > 25 | > 25 | CCn1cc(C(F)(F)F)nc1-c1ccc(CN2C(=O)CCn3nc(-c4c(OC)ncnc4C4CC4)nc32)cc1F [Example 44] |

| SMILES | IC50 [1] [nM] | IC50 [2] [nM] | solubility at 24 h [3, 6] [µM] | solubility at 24 h [3, 7] [µM] | half-life at 1 μM [4] [min] | half-life at 1 μM [5] [min] |
| --- | --- | --- | --- | --- | --- | --- |
| COc1ncnc(C2CC2)c1-c1cc2n(n1)CCCN2Cc1ccc(-c2nc(C(F)(F)F)cn2C)cc1 [Example 24, 2-(4-cyclopropyl-6-methoxypyrimidin-5-yl)-4-(4-(1-methyl-4-(trifluoromethyl)-1H-imidazol-2-yl)benzyl)-4,5,6,7-tetrahydropyrazolo[1,5-α]pyrimidine] | < 100 | < 100 | ≥ 10 | ≥ 10 | < 25 | < 25 |
| COc1ncnc(C2CC2)c1-c1nn2c(c1C)N(Cc1ccc(-c3nc(C(F)(F)F)cn3C)cc1)C(=O)CC2 [Example 35, 2-(4-cyclopropyl-6-methoxypyrimidin-5-yl)-3-methyl-4-(4-(1-methyl-4-(trifluoromethyl)-1H-imidazol-2-yl)benzyl)-6,7-dihydropyrazolo[1,5-α]pyrimidin-5(4H)-one] | 100 to 500 | > 500 | < 10 | < 10 | > 25 | < 25 |
